Measured values from US4967772A, “Tobacco smoking article and treatment of tobacco smoke with at least one alcohol” (C.A. Blockers, Inc., priority 1987, dated 1990).

Assays:
nitrosamine localization [1] = test: Inhibition of selective localization of nitrosamines (delocalization), general statement; type: in vivo
Excerpt: The alcohols which are operable according to the invention include alcohols having two or more carbons. However, it is preferable to use alcohols having alkyl groups of at least three carbons or greater. The alkyl groups may have a straight-chain or branched chain structure. Moreover, the alkyl groups may have a cyclic or acyclic structure.

epithelial membranes = settings: cited from earlier work
adult human = settings: per kg body weight; cited from earlier work
tissues of the body = settings: [14C] NNN, adult male C57BL/6J mice; cited from earlier work
F-344 rat esophagus = settings: in contrast to other tissues; cited from earlier work
F-344 rats = settings: NNN in drinking water; cited from earlier work
rodents = settings: cited from earlier work; for carcinogenicity: N-nitroso derivatives of tobacco alkaloids
nitrosamine localization [2] = test: Whole-body autoradiography of [14C] NNN after intraperitoneal imidazole; type: in vivo, male C57BL/6J mouse; settings: 20 min before i.v. [14C] NNN, vs control mouse
Protocol: An adult male C57BL/6J mouse was injected intraperitoneally with 0.02 ml/g body weight of a solution of imidazole in water. The imidazole solution concentration was such that 0.05 g of imidazole was delivered per kg of body weight. […] See Example 1.
Example 4 was duplicated except that the adult mouse was injected intraperitoneally with 0.02 ml/g body weight of a solution of imidazole in water, wherein the solution concentration was such that 0.25 g of imidazole was delivered per kg of body weight.

[3] = Whole-body autoradiography: localization of [14C] NNN radioactivity in bronchial epithelium after oral alcohol pretreatment; type: in vivo, male C57BL/6J mice
Protocol: (§1) One hour later, the mice were anesthetized lightly with ether and frozen by immersion in dry ice/hexane. Twenty u-thick whole-body sagittal sections of the frozen mice were taken onto Scotch tape and were then processed for whole-body autoradiography by known methods. See W. Waddell et al, Drug Fate and Metabolism: Methods and Techniques. E.R. Garrett and J.L. Hirtz, Eds. […] Photometric density in areas of the developed autoradiographs was measured with an ADG Instruments photometer and a photocell with an aperture of three mm lying on the easel of a photographic enlarger. The X-ray film was placed in the enlarger and raised to produce a magnification of thirty-five times on the easel.
(§2) NNN. […] (Twenty minutes is the average time it takes for alcohols introduced by oral intubation in mice to reach the peak blood level.)
(§3) The number within each bar thereof represents the dose in g/kg of the alcohol which was administered orally twenty minutes before the [^14 C] NNN was given intravenously. The mice were frozen one hour after receiving the [^14 C] NNN. The means for each mouse were from fifteen measurements on random areas of that site (five absorbancies on each of three autoradiographs) after setting blood in each on zero. The control value is the mean from six mice; the n-butanol at one g/kg is from two mice; and the other means are from one mouse.

rats = settings: cited from earlier work
[4] = system: malignant growth and tumor development; settings: cited from earlier work
bronchial epithelium = test: Whole-body autoradiography of [14C] NNN after inhalation of cyclohexanol vapor; type: in vivo, C57BL/6J mouse; settings: 5 min inhalation
Protocol: The mouse was kept in the closed beaker for about five minutes as the bottom of the beaker was maintained at 50° C. in a water bath. […] Handbook of Chemistry and Physics (1979) at D-203 to D-217, which is incorporated herein in its entirety.
One hour later, the mouse was anesthetized lightly by ether and frozen by immersion in dry ice/hexane. […] Control experiments were conducted for comparison purposes and radioactivity was detected in the respiratory epithelium in the controls.
Example 2 was duplicated, except that the mouse was kept in the closed beaker for five minutes as the bottom of the beaker was maintained at 20° C. in a water bath. […] After injection as in Example 2, the mouse was processed in the same manner as in Example 2.

salivary duct epithelium = settings: oral 20 min before i.v. [14C] NNN; ethanol 1 and 5 g/Kg, n-butanol 0.2 and 1 g/Kg; 1 h
Protocol: as §1, §2, §3

liver = settings: oral 20 min before i.v. [14C] NNN; ethanol 1 and 5 g/Kg, n- and t-butanol 0.2 and 1 g/Kg; 1 h
Protocol: as §1, §2, §3

Compound: C[S+](C)[O-] [dimethylsulfoxide (DMSO), dimethylsulfoxide]
- delocalization of nitrosamines (nitrosamine localization [1]): found to delocalize nitrosamines

Compound: Vitamin E
- formation of nitrosamines on epithelial membranes (epithelial membranes): prevent the formation of nitrosamines on epithelial membranes

Compound: CN1CCCC1c1cccnc1 (stereo not shown) [nicotine]
- estimated acutely fatal oral dose (adult human): 1 mg/kg

Compound: O=NN1CCCC1c1cccnc1 (stereo not shown) [NNN, N'-Nitrosonoronicotine]
- retention of radioactivity versus sites of tumor formation (tissues of the body): striking correlation of the retention of radioactivity with the previously reported sites of tumor formation
- hydroxylation at the a-carbon of NNN adjacent to the pyridine ring (F-344 rat esophagus): preferentially catalyzes hydroxylation at the a-carbon of NNN adjacent to the pyridine ring
- esophageal tumors (F-344 rats): esophageal tumors have been induced
- carcinogenicity (rodents): powerful environmental carcinogens
- sites of tumor formation (rodents; in vivo): typically induces tumor formation at five sites, namely the nasal cavity, salivary duct, esophagus, bronchial epithelium and the liver
- carcinogenesis in olfactory epithelium, lung, salivary glands (rodents; rodents): known to induce carcinogenesis in the olfactory epithelium, lung, salivary glands

Compound: c1c[nH]cn1 [imidazole]
- delocalization of nitrosamines (nitrosamine localization [1]): found to delocalize nitrosamines
- nitrosamine delocalization (nitrosamine localization [2]; 0.05 g/kg imidazole i.p.): Significant nitrosamine delocalization
- delocalization of nitrosamine (nitrosamine localization [2]; 0.25 g/kg imidazole i.p.): significant delocalization of nitrosamine

Compound: CC(C)(C)O [t-butanol]
- inhibition in bronchial epithelium (FIG. 1), ranking ([3]; from inspection of FIG. 1, oral pretreatment): greatest inhibition
- localization of [14C] NNN in bronchial epithelium ([3]; high dosage (t-butanol 1 g/Kg oral), 20 min before i.v. [14C] NNN): almost completely abolished

Compound: CC1=C(/C=C/C(C)=C/C=C/C(C)=C/CO)C(C)(C)CCC1 [retinol, reference compound]
- inhibition of nitrosamine localization (nitrosamine localization [1]): does not inhibit nitrosamine localization

Compound: [Cl-].[Na+] [sodium chloride, reference compound]
- LD50 (rats; acute oral, rats): about 3.75 g/Kg

Compound: O=C1O[C@H]([C@@H](O)CO)C(O)=C1O [Vitamin C]
- formation of nitrosamines on epithelial membranes (epithelial membranes): prevent the formation of nitrosamines on epithelial membranes

Compound: Vitamin A
- malignant growth [4]: suppress malignant growth

Compound: OC1CCCCC1 [cyclohexanol]
- radioactivity in bronchial epithelium (bronchial epithelium; 20° C., 0.001% cyclohexanol in air): No radioactivity was detected in any part of the bronchial epithelium
- radioactivity in bronchial epithelium (bronchial epithelium; 50° C., 0.01% cyclohexanol in air): No radioactivity was detected in any part of the bronchial epithelium

Compound: S=C=NCc1ccccc1 [benzylisothiocyanate]
- delocalization of nitrosamines (nitrosamine localization [1]): found to delocalize nitrosamines

Compound: CCO [ethanol]
- localization of radioactivity in salivary duct epithelium (salivary duct epithelium): reduced by pretreatment
- localization of radioactivity in periportal and central areas of the liver (liver): reduced by pretreatment
- localization of radioactivity in bronchial epithelium ([3]; oral 20 min before i.v. [14C] NNN, ethanol 1 and 5 g/Kg, n-butanol 0.2 and 1 g/Kg, 1 h): reduced by pretreatment

Compound: CN(CCCC(=O)c1cccnc1)N=O [NNK, 4-N-methyl-N-nitrosamino)-1-(3-pyridyo-1-butano]
- carcinogenicity (rodents): powerful environmental carcinogens

Compound: [Se] [Selenium]
- tumor development [4]: inhibit tumor development

Compound: c1cn[nH]c1 [pyrazole]
- delocalization of nitrosamines (nitrosamine localization [1]): found to delocalize nitrosamines

Compound: CCCCC(CC)CO (stereo not shown) [2-ethyl hexanol]
- Acute Oral LD50 rats (rats; rat, in vivo, po): 3200 to 7100 mg/kg
